≈ marks a conversion by molar mass, not a printed value.

The test system of assay [1] is U937 cells. Put plainly: Quantitative determination of PKC activation, escape velocity dose response. The settings on record: five hours. In kind it is cell-based. The protocol:
Optophoretic analysis was used to develop a full dose response curve for U937 cells treated with PMA. U937 cells were incubated with varying amounts of PMA dissolved in DMSO. The following concentrations of PMA were tested: 0.156 ng/ml, 0.312 ng/ml, 0.625 ng/ml, 1.25 ng/ml, 2.5 ng/ml, 5 ng/ml, and no PMA (control). […] Escape velocity measurements were then taken using a 100 mW laser having a beam diameter of 28 pixels. Table 9 reproduced below sets forth the measured escape velocities (μm/sec) for each of the various PMA concentrations.
The method described above may be used to quantitatively determine the level of PKC activation in cells in response to exposure to PKC activating compound using a moving optical gradient. The method includes the steps of first providing a series of cell samples and exposing the series of cell samples to different concentrations of the PKC activating compound. After a period of incubation from about one to several hours, the cells and the optical gradient are moved relative to each other so as to cause displacement of at least some of the cells. Next, the displacement of at least a portion of the displaced cells is measured for each of the different concentrations. […] From the dose response curve, one is able to calculate one or more numerical values that correlate to PKC potency and/or efficacy. For example, the dose response curve can be used to calculate the EC50, Hill slope, or plateau value relative to a standard compound.

Assay [2] concerns U937 cells. Kind of assay: Escape velocity, PMA inhibition by bisindolymaleimide. In kind it is cell-based. As to conditions: 10 ng/ml PMA only, four hours. From the text:
The objective of this experiment was to test the effect of bisindolymaleimide on cells exposed to PMA. Bisindolymaleimide is a Protein Kinase C inhibitor and should block the effect of PMA on U937 cells and their escape velocities. As shown in this and prior experiments, exposure of U937 cells to PMA results in an increase in the escape velocity of the cells. Therefore, it is anticipated that addition of bisindolymaleimide will reduce or eliminate the increase in escape velocity caused by PMA. This has in fact been observed in the data shown below.
Bisindolymaleimide was tested at two concentrations: 200 ng/ml and 50 ng/ml. Samples not treated with bisindolymaleimide received an equivalent amount of the carrier, MeOH, as a control. […] The concentration of PMA tested was 10 ng/ml. Samples not receiving PMA received DMSO.
Once the flasks were prepared, they were incubated at 37° C. 5% CO2 for four hours. At the four hour timepoint, 300 μl of cells were removed from each flask and pelleted at 5000 rpm for 5 minutes. The cells were then resuspended in 6 ml PBS/1% BSA and 60 μl trypan blue.

For orientation: EC50 means the concentration at which the effect is half-maximal. For `CCCCCCCCCCCCCC(=O)O[C@@H]1[C@@H](C)[C@@]2(O)[C@@H](C=C(CO)C[C@]3(O)C(=O)C(C)=C[C@@H]23)[C@@H]2C(C)(C)[C@]12OC(C)=O` [PMA, phorbol 12 myristate 13-acetate], the “Escape velocity Average” value in the assay on U937 cells [1] (1.25 ng/ml PMA) is listed as 17.0 μm/sec; in the assay on U937 cells [1] (2.5 ng/ml PMA) it was 17.0 μm/sec; in the assay on U937 cells [1] (5 ng/ml PMA) it was 17.3 μm/sec; in the assay on U937 cells [1] (.156 ng/ml PMA), 15.8 μm/sec; with U937 cells [1] (.312 ng/ml PMA), 16.0 μm/sec; in the assay with U937 cells [1] (.625 ng/ml PMA), 16.6 μm/sec. Moreover, the EC50 in the assay on U937 cells [1] (Homo sapiens, U-937, 5 h, escape velocity, U937 cells, read-out: EC50 value of the PMA dose response curve (FIG. 53)) is approximately 0.625 ng/mL (≈ 1.01 nM). Moreover, the “PMA concentrations at which a significant shift in escape velocity is seen” value in the assay on U937 cells [1] (U937 cells) is reported as “exceeding 0.625 ng/ml”. Besides, the “Escape velocity Ave.” value in the assay with U937 cells [2] is 15.4 μm/sec.

The values are drawn from patent US20040121474A1, “Detection and evaluation of chemically-mediated and ligand-mediated t-cell activation using optophoretic analysis” (Genoptix, Inc, priority 2002, published 2004).
